# According to ChEMBL document CHEMBL1201862, “PubChem BioAssay data set” (2004):
#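 Growth conditions: 96-well plates. Treatment: test compound, 48 hours, 5 concentrations. Analysis: linear interpolation between bracketing concentrations; unreached endpoints set to highest concentration. At the GI50, growth is halved.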 Calls of active or inactive are those of the source. Cut-off read from the data, not from the text of the source: active = GI50 up to about 1.1 µM and inactive = higher.
# Tests used:
# Test in all cases: inhibition of tumour cell growth, NCI panel, 48 h
# CCRF-CEM = tested on: CCRF-CEM
# U-251 = tested on: U-251
# SN12C = tested on: SN12C
# NCI-H23 = tested on: NCI-H23
# EKVX = tested on: EKVX
# UACC-257 = tested on: UACC-257
# A549 = tested on: A549
# DMS-273 = tested on: DMS-273
# DMS-114 = tested on: DMS-114
# SNB-75 = tested on: SNB-75
# XF498 = tested on: XF498
# SNB-19 = tested on: SNB-19
# OVCAR-4 = tested on: OVCAR-4
# IGROV-1 = tested on: IGROV-1
# CAKI-1 = tested on: CAKI-1
# SK-MEL-2 = tested on: SK-MEL-2
# HCT-15 = tested on: HCT-15
# PC-3 = tested on: PC-3
# MCF7 = tested on: MCF7
# T47D = tested on: T47D
SMILES,GI50 (CCRF-CEM),GI50 (U-251),GI50 (SN12C),GI50 (NCI-H23),GI50 (EKVX),GI50 (UACC-257),GI50 (A549),GI50 (DMS-273),GI50 (DMS-114),GI50 (SNB-75),GI50 (XF498),GI50 (SNB-19),GI50 (OVCAR-4),GI50 (IGROV-1),GI50 (CAKI-1),GI50 (SK-MEL-2),GI50 (HCT-15) [µM],GI50 (PC-3),GI50 (MCF7),GI50 (T47D)
CCCCCN(CCCCC)C(=O)[C@@H](CCC(=O)O)NC(=O)c1cc2ccccc2[nH]1,22.8 µM (inactive),29.1 µM (inactive),43.4 µM (inactive),22.8 µM (inactive),48.1 µM (inactive),49.4 µM (inactive),39.3 µM (inactive),32.1 µM (inactive),33 µM (inactive),12.3 µM (inactive),26 µM (inactive),34.9 µM (inactive),44 µM (inactive),44 µM (inactive),25.1 µM (inactive),27.7 µM (inactive),37.7,–,–,–
O=C(CC1(O)C(=O)Nc2c(Cl)ccc(Cl)c21)c1ccc2ccccc2c1 (stereo unspecified),3.62 µM (inactive),4.76 µM (inactive),16.4 µM (inactive),10.4 µM (inactive),15.8 µM (inactive),12.2 µM (inactive),18.3 µM (inactive),5.58 µM (inactive),5.78 µM (inactive),14.2 µM (inactive),12.6 µM (inactive),16.1 µM (inactive),2.29 µM (inactive),14.3 µM (inactive),4.46 µM (inactive),11.6 µM (inactive),6.19,–,–,–
COc1cc2c[n+](C)c3c4ccccc4ccc3c2cc1OC.COc1cc2cnc3c4ccccc4ccc3c2cc1OC,6.47 µM (inactive),3.05 µM (inactive),2.84 µM (inactive),12.2 µM (inactive),2.2 µM (inactive),20 µM (inactive),2.54 µM (inactive),2.88 µM (inactive),2.31 µM (inactive),3.54 µM (inactive),5.69 µM (inactive),3.94 µM (inactive),21.7 µM (inactive),11.8 µM (inactive),58.6 µM (inactive),9.82 µM (inactive),> 100,2.84 µM (inactive),1.79 µM (inactive),3.14 µM (inactive)
O=c1ncccn1[C@@H]1O[C@H](CO)[C@H](O)C1O (stereo partly specified),49 µM (inactive),> 100 µM (inactive),> 77.1 µM (inactive),> 100 µM (inactive),> 100 µM (inactive),> 100 µM (inactive),> 89.5 µM (inactive),> 77.1 µM (inactive),> 100 µM (inactive),53.8 µM (inactive),> 100 µM (inactive),> 100 µM (inactive),> 100 µM (inactive),> 100 µM (inactive),38.8 µM (inactive),> 73.5 µM (inactive),> 93.1,–,–,–
CCc1ccccc1N1CCN(C(=O)c2cc(OC)c(OC)c(OC)c2)CC1,0.0524 µM (active),0.0316 µM (active),0.184 µM (active),0.0557 µM (active),1.39 µM (inactive),0.0247 µM (active),0.0452 µM (active),0.0277 µM (active),0.0561 µM (active),0.0182 µM (active),0.115 µM (active),0.067 µM (active),1.15 µM (inactive),0.0462 µM (active),< 0.0205 µM (active),0.0247 µM (active),0.0259,< 0.0144 µM (active),0.0178 µM (active),17.3 µM (inactive)
COC(=O)C1=C(C(=O)OC)N(C(C)C)[C@H]2C(C(=O)OC)=C(C(=O)OC)N(C(C)C)[C@@H]12,> 100 µM (inactive),> 100 µM (inactive),> 100 µM (inactive),> 100 µM (inactive),> 100 µM (inactive),> 100 µM (inactive),> 100 µM (inactive),> 100 µM (inactive),> 100 µM (inactive),93.3 µM (inactive),> 100 µM (inactive),> 100 µM (inactive),> 100 µM (inactive),> 100 µM (inactive),> 100 µM (inactive),> 100 µM (inactive),> 100,–,–,–
COC1=CC(=O)c2ccc(C(C)C)cc2C1(C)C1=NC(C)(C)CO1 (stereo unspecified),> 100 µM (inactive),> 100 µM (inactive),> 100 µM (inactive),> 100 µM (inactive),> 100 µM (inactive),65.8 µM (inactive),> 100 µM (inactive),> 100 µM (inactive),> 100 µM (inactive),80.5 µM (inactive),> 100 µM (inactive),> 100 µM (inactive),> 100 µM (inactive),> 100 µM (inactive),> 100 µM (inactive),> 100 µM (inactive),> 100,–,–,–
[O-][Cl+3]([O-])([O-])[O-].c1ccc(-c2csc3c4ccccc4c4ccccc4[n+]23)cc1,2.25 µM (inactive),2.45 µM (inactive),1.65 µM (inactive),0.553 µM (active),8.79 µM (inactive),1.08 µM (active),2.17 µM (inactive),1.6 µM (inactive),0.394 µM (active),2.35 µM (inactive),1.79 µM (inactive),2.15 µM (inactive),3.96 µM (inactive),3.95 µM (inactive),7.5 µM (inactive),2.54 µM (inactive),23.3,–,–,–
COC(=O)C(Cc1nc2ccc(Cl)cc2nc1O)C(=O)C(=O)Nc1cc(C)ccc1C (stereo unspecified),> 100 µM (inactive),> 100 µM (inactive),> 100 µM (inactive),> 100 µM (inactive),8.2 µM (inactive),> 100 µM (inactive),> 100 µM (inactive),> 100 µM (inactive),> 100 µM (inactive),> 100 µM (inactive),> 100 µM (inactive),> 100 µM (inactive),> 100 µM (inactive),> 100 µM (inactive),> 100 µM (inactive),> 100 µM (inactive),> 100,–,–,–
C=CCC1=C2CCCCC2CCC1=O (stereo unspecified),> 100 µM (inactive),> 100 µM (inactive),> 100 µM (inactive),> 100 µM (inactive),> 100 µM (inactive),> 100 µM (inactive),> 100 µM (inactive),> 100 µM (inactive),> 100 µM (inactive),> 100 µM (inactive),> 100 µM (inactive),> 100 µM (inactive),> 100 µM (inactive),> 100 µM (inactive),> 100 µM (inactive),> 100 µM (inactive),> 100,–,–,–
